Test results published in US20230192700A1, “PYRAZOLOPYRAZINES ACTING ON CANCERS VIA INHIBITION OF CDK12” (Bayer Aktiengesellschaft, priority 2020, published 2023).
Where two headings read alike, the source gives them in different places.

Legend:
[1] = test system: CAL-120 human breast adenocarcinoma cells; assay: Proliferation assay CAL-120 (crystal violet); format: cell-based; settings: CAL-120 cells, 4 days, median, read-out: Prolif-CAL-120— IC50 - [mol/l] (median)
Summary of the method: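 Cells seeded at 4,000/well in medium with 10% fetal calf serum, dosed after 24 h (0.01-10 micromol/L, 0.1% DMSO) and grown 4 days. Crystal violet staining read at 595 nm, normalised to zero-point plate (0%) and untreated cells (100%); IC50 by 4-parameter fit.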

CDK12/CyclinK = biological target: T1, CDK12/CyclinK (Homo sapiens, UniProt Q9NYV4); assay: CDK12/CycK high ATP kinase assay (TR-FRET); format: biochemical; settings: 2 mM ATP (high ATP); median; read-out: CDK12/CyclinK, 2 mM ATP (high ATP), IC50 - [mol/l] (median)
T1 construct: His-CDK12 (aa Q696-S1082); made in house; host or cells: Hi-5 insect cells (baculovirus co-infection with CycK and yeast CAK1)
Summary of the method: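 Human His-tagged CDK12/CycK (about 0.75 nM) preincubated with compound 15 min, then reacted 60 min at 22 °C with 2 mM ATP and 1 µM biotinylated peptide in HEPES pH 7.5 buffer. Phospho-Ser62 c-Myc epitope detected by TR-FRET (665/620 nm ratio); data normalised to no-inhibitor and no-enzyme controls.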

T1 sequence (Q9NYV4 with tags, fused parts or gaps): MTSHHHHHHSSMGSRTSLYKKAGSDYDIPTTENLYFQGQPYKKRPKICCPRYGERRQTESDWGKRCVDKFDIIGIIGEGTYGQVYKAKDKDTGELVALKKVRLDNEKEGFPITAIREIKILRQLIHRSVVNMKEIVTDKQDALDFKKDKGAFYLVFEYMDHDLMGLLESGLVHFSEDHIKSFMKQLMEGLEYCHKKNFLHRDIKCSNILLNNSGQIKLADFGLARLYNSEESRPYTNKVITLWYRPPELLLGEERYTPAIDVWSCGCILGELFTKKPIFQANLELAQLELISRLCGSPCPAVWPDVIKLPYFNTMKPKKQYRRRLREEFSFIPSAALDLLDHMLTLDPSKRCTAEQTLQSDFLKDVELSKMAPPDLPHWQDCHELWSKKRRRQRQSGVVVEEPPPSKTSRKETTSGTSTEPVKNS
T1 sequence (O75909 with tags, fused parts or gaps partner limits assumed): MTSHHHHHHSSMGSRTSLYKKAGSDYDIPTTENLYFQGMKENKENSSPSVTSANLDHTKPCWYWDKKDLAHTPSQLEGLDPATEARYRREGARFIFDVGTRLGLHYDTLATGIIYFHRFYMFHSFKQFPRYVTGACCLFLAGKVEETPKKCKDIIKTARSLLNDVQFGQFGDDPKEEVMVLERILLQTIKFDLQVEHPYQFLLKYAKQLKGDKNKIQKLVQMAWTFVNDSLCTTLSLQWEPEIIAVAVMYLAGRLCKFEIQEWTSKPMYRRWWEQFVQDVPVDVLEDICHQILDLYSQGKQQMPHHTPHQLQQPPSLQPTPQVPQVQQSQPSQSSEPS

In the case of CC(C)(O)C1CC(n2nc(NCc3nc4ccccc4[nH]3)c3ncc(C4CC4)nc32)C1 (mixture of isomers) [Example 48, 2-[cis/trans-3-(3-{[(1H-benzimidazol-2-yl)methyl]amino}-6-cyclopropyl-1H-pyrazolo[3,4-b]pyrazin-1-yl)cyclobutyl]propan-2-ol], the IC50 ([1]; Homo sapiens, CAL-120, 96 h) is reported as 0.0425 µM and the IC50 (CDK12/CyclinK) is reported as 13.7 µM.
In the case of c1ccc2[nH]c(CNc3nn(C4CCNCC4)c4nc(C5CC5)cnc34)nc2c1 [Example 12, N-[(1H-benzimidazol-2-yl)methyl]-6-cyclopropyl-1-(piperidin-4-yl)-1H-pyrazolo[3,4-b]pyrazin-3-amine], the IC50 ([1]; Homo sapiens, CAL-120, 96 h) is reported as 0.00649 µM and the IC50 (CDK12/CyclinK) is reported as greater than 20 µM.
With OCCn1nc(NCc2nc3ccccc3[nH]2)c2ncc(C3CC3)nc21 [Example 66, 2-(3-{[(1H-benzimidazol-2-yl)methyl]amino}-6-cyclopropyl-1H-pyrazolo[3,4-b]pyrazin-1-yl)ethan-1-ol] the IC50 ([1]; Homo sapiens, CAL-120, 96 h) was 0.16 µM and the IC50 (CDK12/CyclinK) was greater than 20 µM.
In the case of CC(C)(O)CCn1nc(NCc2nc3ccccc3[nH]2)c2ncc(C3CC3)nc21 [Example 76, 4-(3-{[(1H-benzimidazol-2-yl)methyl]amino}-6-cyclopropyl-1H-pyrazolo[3,4-b]pyrazin-1-yl)-2-methylbutan-2-ol], the IC50 ([1]; Homo sapiens, CAL-120, 96 h) is reported as 0.0557 µM and the IC50 (CDK12/CyclinK) is reported as greater than 20 µM.
c1ccc2[nH]c(CNc3nn(C4CCC4)c4nc(C5CC5)cnc34)nc2c1 [Example 49, N-[(1H-benzimidazol-2-yl)methyl]-1-cyclobutyl-6-cyclopropyl-1H-pyrazolo[3,4-b]pyrazin-3-amine] gave an IC50 ([1]; Homo sapiens, CAL-120, 96 h) of 0.122 µM and an IC50 (CDK12/CyclinK) greater than 20 µM.
Work on CN1CCC(n2nc(NCc3nc4cc(F)c(F)cc4[nH]3)c3ncc(C4CC4)nc32)CC1 [Example 30, 6-cyclopropyl-N-[(5,6-difluoro-1H-benzimidazol-2-yl)methyl]-1-(1-methylpiperidin-4-yl)-1H-pyrazolo[3,4-b]pyrazin-3-amine] yielded an IC50 ([1]; Homo sapiens, CAL-120, 96 h) of 0.0134 µM and an IC50 (CDK12/CyclinK) greater than 20 µM.
CC(C)(C)OC(=O)N1CCC(n2nc(NCc3nc4ccccc4[nH]3)c3ncc(C4CC4)nc32)CC1 [Example 11, tert-butyl 4-(3-{[(1H-benzimidazol-2-yl)methyl]amino}-6-cyclopropyl-1H-pyrazolo[3,4-b]pyrazin-1-yl)piperidine-1-carboxylate] gave an IC50 ([1]; Homo sapiens, CAL-120, 96 h) of 0.0814 µM and an IC50 (CDK12/CyclinK) greater than 20 µM.
Fc1ccc2[nH]c(CNc3nn(C4CCOCC4)c4nc(C5CC5)cnc34)nc2c1F [Example 32, 6-cyclopropyl-N-[(4,5-difluoro-1H-benzimidazol-2-yl)methyl]-1-(oxan-4-yl)-1H-pyrazolo[3,4-b]pyrazin-3-amine] gave an IC50 ([1]; Homo sapiens, CAL-120, 96 h) of 0.00212 µM and an IC50 (CDK12/CyclinK) of 13.8 µM.
Molecule CC(CCN(C)C)n1nc(NCc2nc3ccccc3[nH]2)c2ncc(C3CC3)nc21 (single isomer, unassigned) [Example 64, (−) or(+)-N-[(1H-benzimidazol-2-yl)methyl]-6-cyclopropyl-1-[4-(dimethylamino)butan-2-yl]-1H-pyrazolo[3,4-b]pyrazin-3-amine] has an IC50 [1] of 0.295 µM and an IC50 (CDK12/CyclinK) greater than 20 µM.
OCC1(Cn2nc(NCc3nc4ccccc4[nH]3)c3ncc(C4CC4)nc32)CCC1 [Example 74, {1-[(3-{[(1H-benzimidazol-2-yl)methyl]amino}-6-cyclopropyl-1H-pyrazolo[3,4-b]pyrazin-1-yl)methyl]cyclobutyl}methanol] was tested, and the IC50 ([1]; Homo sapiens, CAL-120, 96 h) was 0.0467 µM and the IC50 (CDK12/CyclinK) was greater than 10 µM.
For c1ccc2[nH]c(CNc3nn(CC4CCC4)c4nc(C5CC5)cnc34)nc2c1 [Example 75, N-[(1H-benzimidazol-2-yl)methyl]-1-(cyclobutylmethyl)-6-cyclopropyl-1H-pyrazolo[3,4-b]pyrazin-3-amine], the IC50 ([1]; Homo sapiens, CAL-120, 96 h) was 0.268 µM and the IC50 (CDK12/CyclinK) was greater than 20 µM.
COc1cccc2[nH]c(CNc3nn(C4CCN(C)CC4)c4nc(C5CC5)cnc34)nc12 [Example 2, 6-cyclopropyl-N-[(4-methoxy-1H-benzimidazol-2-yl)methyl]-1-(1-methylpiperidin-4-yl)-1H-pyrazolo[3,4-b]pyrazin-3-amine] was tested, and the IC50 ([1]; Homo sapiens, CAL-120, 96 h) was 0.011 µM and the IC50 (CDK12/CyclinK) was greater than 20 µM.
In the case of OC1(Cn2nc(NCc3nc4ccccc4[nH]3)c3ncc(C4CC4)nc32)CCC1 [Example 72, 1-[(3-{[(1H-benzimidazol-2-yl)methyl]amino}-6-cyclopropyl-1H-pyrazolo[3,4-b]pyrazin-1-yl)methyl]cyclobutan-1-ol], the IC50 ([1]; Homo sapiens, CAL-120, 96 h) is reported as 0.0606 µM and the IC50 (CDK12/CyclinK) is reported as greater than 10 µM.
Molecule Cc1cnc2c(NCc3nc4ccccc4[nH]3)nn(C3CCN(C)CC3)c2n1 [Example 77, N-[(1H-benzimidazol-2-yl)methyl]-6-methyl-1-(1-methylpiperidin-4-yl)-1H-pyrazolo[3,4-b]pyrazin-3-amine] has an IC50 ([1]; Homo sapiens, CAL-120, 96 h) of 1.04 µM and an IC50 (CDK12/CyclinK) greater than 20 µM.
In the case of Cc1cccc2[nH]c(CNc3nn(C4CCN(C)CC4)c4nc(C5CC5)cnc34)nc12 [Example 8, 6-cyclopropyl-N-[(4-methyl-1H-benzimidazol-2-yl)methyl]-1-(1-methylpiperidin-4-yl)-1H-pyrazolo[3,4-b]pyrazin-3-amine], the IC50 ([1]; Homo sapiens, CAL-120, 96 h) is reported as 0.0142 µM and the IC50 (CDK12/CyclinK) is reported as greater than 20 µM.
CN1CCC(n2nc(NCc3nc4c(F)cccc4[nH]3)c3ncc(C4CC4)nc32)CC1 [Example 3, 6-cyclopropyl-N-[(4-fluoro-1H-benzimidazol-2-yl)methyl]-1-(1-methylpiperidin-4-yl)-1H-pyrazolo[3,4-b]pyrazin-3-amine] was tested, and the IC50 ([1]; Homo sapiens, CAL-120, 96 h) was 0.0033 µM and the IC50 (CDK12/CyclinK) was no less than 11.6 µM.
Cc1c(Cl)ccc2[nH]c(CNc3nn(C4CCN(C)CC4)c4nc(C5CC5)cnc34)nc12 [Example 21, N-[(5-chloro-4-methyl-1H-benzimidazol-2-yl)methyl]-6-cyclopropyl-1-(1-methylpiperidin-4-yl)-1H-pyrazolo[3,4-b]pyrazin-3-amine] showed an IC50 ([1]; Homo sapiens, CAL-120, 96 h) of 0.00793 µM and an IC50 (CDK12/CyclinK) greater than 20 µM.
CC(C)(O)Cn1nc(NCc2nc3ccccc3[nH]2)c2ncc(C3CC3)nc21 [Example 69, 1-(3-{[(1H-benzimidazol-2-yl)methyl]amino}-6-cyclopropyl-1H-pyrazolo[3,4-b]pyrazin-1-yl)-2-methylpropan-2-ol] was tested, and the IC50 ([1]; Homo sapiens, CAL-120, 96 h) was 0.199 µM and the IC50 (CDK12/CyclinK) was greater than 10 µM.
CN1CCC(n2nc(NCc3nc4cc(Cl)c(Cl)cc4[nH]3)c3ncc(C4CC4)nc32)CC1 [Example 19, 6-cyclopropyl-N-[(5,6-dichloro-1H-benzimidazol-2-yl)methyl]-1-(1-methylpiperidin-4-yl)-1H-pyrazolo[3,4-b]pyrazin-3-amine] showed an IC50 ([1]; Homo sapiens, CAL-120, 96 h) of 0.00361 µM and an IC50 (CDK12/CyclinK) greater than 20 µM.
COc1cccc2[nH]c(CNc3nn(C4CCOCC4)c4nc(C5CC5)cnc34)nc12 [Example 24, 6-cyclopropyl-N-[(4-methoxy-1H-benzimidazol-2-yl)methyl]-1-(oxan-4-yl)-1H-pyrazolo[3,4-b]pyrazin-3-amine] gave an IC50 ([1]; Homo sapiens, CAL-120, 96 h) of 0.01 µM and an IC50 (CDK12/CyclinK) of 18.2 µM.
With COCCC(C)n1nc(NCc2nc3ccccc3[nH]2)c2ncc(C3CC3)nc21 (single isomer, unassigned; (+)) [Example 59, (+)-N-[(1H-benzimidazol-2-yl)methyl]-6-cyclopropyl-1-[4-methoxybutan-2-yl]-1H-pyrazolo[3,4-b]pyrazin-3-amine] the IC50 [1] was 0.44 µM and the IC50 (CDK12/CyclinK) was greater than 20 µM.
CC(CCN(C)C)n1nc(NCc2nc3ccccc3[nH]2)c2ncc(C3CC3)nc21 (racemic) [Example 62, (±)-N-[(1H-benzimidazol-2-yl)methyl]-6-cyclopropyl-1-[4-(dimethylamino)butan-2-yl]-1H-pyrazolo[3,4-b]pyrazin-3-amine] was tested, and the IC50 ([1]; Homo sapiens, CAL-120, 96 h) was 0.301 µM and the IC50 (CDK12/CyclinK) was greater than 20 µM.
In the case of c1ccc2[nH]c(CNc3nn(C4CCCC4)c4nc(C5CC5)cnc34)nc2c1 [Example 39, N-[(1H-benzimidazol-2-yl)methyl]-1-cyclopentyl-6-cyclopropyl-1H-pyrazolo[3,4-b]pyrazin-3-amine], the IC50 ([1]; Homo sapiens, CAL-120, 96 h) is reported as 0.0888 µM and the IC50 (CDK12/CyclinK) is reported as greater than 20 µM.
In the case of COC(C)(C)CCn1nc(NCc2nc3ccccc3[nH]2)c2ncc(C3CC3)nc21 [Example 67, N-[(1H-benzimidazol-2-yl)methyl]-6-cyclopropyl-1-(3-methoxy-3-methylbutyl)-1H-pyrazolo[3,4-b]pyrazin-3-amine], the IC50 ([1]; Homo sapiens, CAL-120, 96 h) is reported as 0.0797 µM and the IC50 (CDK12/CyclinK) is reported as greater than 20 µM.
With CC1COCCC1n1nc(NCc2nc3ccccc3[nH]2)c2ncc(C3CC3)nc21 (racemic) [Example 42, (±)-cis/trans-N-[(1H-benzimidazol-2-yl)methyl]-6-cyclopropyl-1-(3-methyloxan-4-yl)-1H-pyrazolo[3,4-b]pyrazin-3-amine] the IC50 ([1]; Homo sapiens, CAL-120, 96 h) was 0.0845 µM and the IC50 (CDK12/CyclinK) was greater than 20 µM.
